Laboratory results reported in publication PMC3705412, “PTP1B Inhibitory and Anti-Inflammatory Effects of Secondary Metabolites Isolated from the Marine-Derived Fungus Penicillium sp. JF-55” (Marine Drugs, 2013).

What was measured:
[1] = biological target: T1, PTP1B (human, recombinant) (Homo sapiens, UniProt P18031); test: PTP1B assay (pNPP hydrolysis); format: biochemical; conditions: for IC50: 2 mM pNPP, pH 6.0, 30 °C, 30 min, read-out: PTP1B inhibitory activity IC50
T1 construct: purchased BIOMOL Research Laboratories, Inc
T1 sequence (P18031 1-435): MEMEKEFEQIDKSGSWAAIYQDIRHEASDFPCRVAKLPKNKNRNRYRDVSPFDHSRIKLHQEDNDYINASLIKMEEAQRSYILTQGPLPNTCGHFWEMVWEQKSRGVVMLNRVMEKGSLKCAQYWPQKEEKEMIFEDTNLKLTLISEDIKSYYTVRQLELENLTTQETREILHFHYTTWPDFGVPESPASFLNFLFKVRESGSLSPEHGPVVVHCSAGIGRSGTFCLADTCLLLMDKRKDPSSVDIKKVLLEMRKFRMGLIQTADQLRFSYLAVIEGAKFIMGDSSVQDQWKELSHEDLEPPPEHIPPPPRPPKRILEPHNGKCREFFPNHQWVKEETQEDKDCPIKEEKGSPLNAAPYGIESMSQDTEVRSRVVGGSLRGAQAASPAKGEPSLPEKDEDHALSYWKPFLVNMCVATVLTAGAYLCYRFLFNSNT
Description: PTP1B (human, recombinant) was purchased from BIOMOL Research Laboratories, Inc. Enzyme activity was measured in a reaction mixture containing 2 mM p-nitrophenyl phosphate (pNPP) in 50 mM citrate, pH 6.0 (composition: 0.1 M NaCl, 1 mM EDTA, and 1 mM dithiothreitol (DTT)). The reaction mixture was placed in an incubator maintained at 30 °C for 30 min, and the reaction was terminated by the addition of 1 N NaOH. The amount of p-nitrophenol produced was estimated by measuring the increase in absorbance at 405 nm. The nonenzymatic hydrolysis of 2 mM pNPP was corrected by measuring the increase in absorbance at 405 nm in the absence of PTP1B enzyme. For the kinetic analysis, the reaction mixture consisted of different concentrations of pNPP as a PTP1B substrate in the absence or presence of compound 1, and assays were performed as described above. The Michaelis-Menten constant (Km) and maximum velocity (Vmax) of PTP1B were determined by the Lineweaver-Burk plot using a GraphPad Prism® 4 program (GraphPad Software Inc., San Diego, CA, USA).

[2] = test system: iNOS-derived NO production in murine peritoneal macrophages; test: Nitrite (NO) production in LPS-stimulated macrophages, Griess reaction; format: cell-based, murine (C57BL/6 mice); conditions: Mus musculus, Peritoneal macrophage; pre-treated 12 h, LPS 1 μg/mL 18 h
Description: The expression of pro-inflammatory enzymes, including COX-2 and iNOS, plays an important role in immune-activated macrophages via the production of COX-2-derived PGE2 and iNOS-derived NO [20, 21]. To investigate the effects of compounds on iNOS-derived NO and COX-2-derived PGE2 production, and iNOS and COX-2 expression in LPS-stimulated macrophages, murine peritoneal macrophages were stimulated with LPS (1 μg/mL) for 18 h in the presence or absence of non-cytotoxic concentrations of compounds 1–3 (Figure S1). […] The finding that penstyrylpyrone (1) suppressed LPS-induced pro-inflammatory mediators, such as NO, PGE2, iNOS, and COX-2, led further investigation of the effects of penstyrylpyrone (1) on LPS-induced TNF-α and IL-1β production, which are other pro-inflammatory mediators.
C57BL/6 mice were purchased from Orient Bio Co. (Sungnam, Kyung-Kido, Korea). TG-elicited peritoneal macrophages were harvested four days after intraperitoneal (i.p.) injection of 3 mL of TG [37]. Peritoneal lavage was performed using 8 mL of Hanks’ Balanced Salt Solution containing 10 U/mL heparin. The cells were distributed in Roswell Park Memorial Institute medium (RPMI) supplemented with 10% heat-inactivated FBS, in 6-well tissue culture plates (5 × 10^6 cells/mL).
The production of nitrite, a stable end product of NO oxidation, was used as a measure of iNOS activity. The nitrite present in the conditioned medium was determined using a method based on the Griess reaction.

[3] = test system: COX-2-derived PGE2 production in murine peritoneal macrophages; test: PGE2 production in LPS-stimulated macrophages, ELISA; format: cell-based, murine (C57BL/6 mice); conditions: Mus musculus, Peritoneal macrophage; pre-treated 12 h, LPS 1 μg/mL 18 h
Description: (§1) C57BL/6 mice were purchased from Orient Bio Co. (Sungnam, Kyung-Kido, Korea). TG-elicited peritoneal macrophages were harvested four days after intraperitoneal (i.p.) injection of 3 mL of TG [37]. Peritoneal lavage was performed using 8 mL of Hanks’ Balanced Salt Solution containing 10 U/mL heparin. The cells were distributed in Roswell Park Memorial Institute medium (RPMI) supplemented with 10% heat-inactivated FBS, in 6-well tissue culture plates (5 × 10^6 cells/mL). The level of PGE2, TNF-α or IL-1β present in each sample was determined using a commercially available kit from R & D Systems. The assay was performed according to the manufacturer’s instructions. Briefly, murine peritoneal macrophages were cultured in 24-well plates, pre-incubated for 12 h with different concentrations of compounds 1–3, and then stimulated for 18 h with LPS. The cell culture supernatants were then immediately collected after treatment and centrifuged at 13,000× g for 2 min to remove particulate matter. The medium was added to a 96-well plate pre-coated with affinity-purified PGE2-specific polyclonal antibodies or the medium was added to a 96-well plate pre-coated with affinity-purified polyclonal antibodies that were specific to mouse TNF-α or IL-1β. An enzyme-linked polyclonal antibody specific for PGE2, mouse TNF-α or IL-1β was added to the wells for 20 h, followed by a final wash to remove any unbound antibody-enzyme reagent. A substrate solution was added, and the intensity of the color produced, which was measured at 450 nm (the correction wavelength was set at 540 nm or 570 nm), was proportional to the amount of PGE2, TNF-α or IL-1β present.

[4] = test system: IL-1β production in murine peritoneal macrophages; test: IL-1β production in LPS-stimulated macrophages, ELISA; format: cell-based, murine (C57BL/6 mice); conditions: Mus musculus, Peritoneal macrophage; pre-treated 12 h, LPS 1 μg/mL 18 h
Description: as §1

[5] = test system: TNF-α production in murine peritoneal macrophages; test: TNF-α production in LPS-stimulated macrophages, ELISA; format: cell-based, murine (C57BL/6 mice); conditions: Mus musculus, Peritoneal macrophage; pre-treated 12 h, LPS 1 μg/mL 18 h
Description: as §1

[6] = test system: CD4; set-up: method as in doi:10.1351/pac199466102383; conditions: previously reported ref 43; cited from earlier work

| Compound | IC50 [1] [nM] | Mode of PTP1B inhibition (Lineweaver-Burk, non-linear regression) ([1]; different concentrations of pNPP) | IC50 [2] [µM] | IC50 [3] [µM] | IC50 [4] [µM] | IC50 [5] [µM] | CD4-binding activity [6] |
| --- | --- | --- | --- | --- | --- | --- | --- |
| CC1=Cc2oc3cc(O)c(O)c(C(=O)O)c3c(=O)c2CO1 [Anhydrofulvic acid (2), anhydrofulvic acid] | 1900 | competitive | > 40 | > 40 | > 40 | > 40 | weak |
| Cc1cc(=O)c2c(o1)-c1c(cc(O)c(O)c1C(=O)O)OC2 [Citromycetin (3), citromycetin] | > 25800 |  | > 40 | > 40 | > 40 | > 40 | weak |
